Measurements taken from patent publication US20040093079A1, “Compositions and methods for the reduction of post-angioplasty stenosis” (priority 2001, published 2004).

What was measured:
[1] = target: T1, soluble guanylyl cyclase (sGC) (Homo sapiens, UniProt Q02108+Q02153); settings: cited from earlier work
T1 sequence (Q02153 1-619): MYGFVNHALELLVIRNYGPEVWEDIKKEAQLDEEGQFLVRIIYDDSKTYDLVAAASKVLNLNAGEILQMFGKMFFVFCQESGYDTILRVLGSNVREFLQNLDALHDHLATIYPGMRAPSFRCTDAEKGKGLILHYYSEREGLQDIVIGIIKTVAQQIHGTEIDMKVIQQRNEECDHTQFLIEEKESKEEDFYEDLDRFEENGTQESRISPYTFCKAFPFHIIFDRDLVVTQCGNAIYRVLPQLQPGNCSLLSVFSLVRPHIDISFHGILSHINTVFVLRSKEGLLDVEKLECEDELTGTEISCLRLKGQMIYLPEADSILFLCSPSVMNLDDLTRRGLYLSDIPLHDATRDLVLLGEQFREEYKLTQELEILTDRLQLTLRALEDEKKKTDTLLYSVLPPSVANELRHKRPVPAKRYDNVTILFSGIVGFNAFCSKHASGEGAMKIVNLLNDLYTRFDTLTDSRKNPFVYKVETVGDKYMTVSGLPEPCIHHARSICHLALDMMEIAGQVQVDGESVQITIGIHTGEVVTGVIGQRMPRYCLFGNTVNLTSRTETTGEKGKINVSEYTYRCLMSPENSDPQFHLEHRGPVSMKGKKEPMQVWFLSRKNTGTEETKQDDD
T1 sequence (Q02108 1-690): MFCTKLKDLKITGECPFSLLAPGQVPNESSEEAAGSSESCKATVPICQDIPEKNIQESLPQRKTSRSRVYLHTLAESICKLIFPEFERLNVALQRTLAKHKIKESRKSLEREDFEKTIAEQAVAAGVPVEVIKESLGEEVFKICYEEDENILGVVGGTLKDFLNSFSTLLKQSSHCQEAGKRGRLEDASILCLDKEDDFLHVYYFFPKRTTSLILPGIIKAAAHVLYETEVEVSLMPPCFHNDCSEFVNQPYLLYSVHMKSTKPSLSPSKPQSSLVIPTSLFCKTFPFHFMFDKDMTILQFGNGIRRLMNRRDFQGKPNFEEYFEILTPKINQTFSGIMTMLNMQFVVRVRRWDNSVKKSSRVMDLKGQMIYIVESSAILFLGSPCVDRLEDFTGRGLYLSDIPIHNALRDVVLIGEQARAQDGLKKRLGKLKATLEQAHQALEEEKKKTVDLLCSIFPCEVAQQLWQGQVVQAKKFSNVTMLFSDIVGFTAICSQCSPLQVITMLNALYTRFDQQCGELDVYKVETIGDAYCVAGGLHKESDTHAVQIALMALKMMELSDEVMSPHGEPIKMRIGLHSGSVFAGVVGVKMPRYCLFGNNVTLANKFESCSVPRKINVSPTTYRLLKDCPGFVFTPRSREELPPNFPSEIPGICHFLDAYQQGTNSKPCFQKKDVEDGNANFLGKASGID

[2] = tested on: vessel wall cGMP (sGC/cGMP system) in left carotid artery; experiment: Cyclic GMP levels by RIA in balloon injured left carotid artery sections after perivascular YC-1; format: in vivo, rat
Experimental: Cyclic GMP levels were measured in vessel samples with a competitive RIA using ^125I-labeled cGMP, following instructions from the manufacturer (Amersham Pharmacia Biotech, Piscataway, N.J.). […]

[3] = tested on: balloon injured left carotid artery (neointima formation); experiment: Morphometric and histologic analysis of balloon-injured left carotid artery 2 weeks post-injury; format: in vivo, rat
Experimental: The established rat carotid artery (CA) provided the model of balloon angioplasty to illustrate the in vivo arterial response to injury. Male Sprague Dawley rats (Harlan, Indianapolis, Ind.) weighing an average 497 g were anesthetized with a combination anesthetic (ketamine, zylazine, and acepromazine; 0.5-0.7 ml/kg, IM; VetMed Drugs, Houston, Tex.), and the left CA and external carotid branch exposed.
A Fogarty 2F embolectomy catheter (Baxter Healthcare Corp., Irvine, Calif.) was introduced into the external carotid branch through an arteriotomy incision and advanced to the aortic arch. The balloon was inflated and withdrawn three times with rotation. The catheter was removed and the external carotid ligated. The overlying tissue was sutured and the skin closed with rodent wound clips.
In one embodiment, the entire length of the left CA was balloon injured, immediately followed by perivascular application of YC-1 (1 mg) on the distal section. Sites where tissues were taken for “distal+YC-1” and “proximal−YC-1” are indicated. The right CA served as an uninjured control. EC=external carotid branch; IC=internal carotid branch.
Immediately following balloon injury, at least about 200 μl of a 25% solution of a copolymer gel (Pluronic F-127; BASF Corporation, Mount Olive, N.J.) plus YC-1 (at least about 1 mg in 50 μl DMSO; Calbiochem, La Jolla, Calif.) was administered topically to the exposed adventitia of the distal CA section. […] In all experiments, the entire length of the left CA was injured (avg. 22 mm), while the contralateral right CA served as an unmanipulated untreated control. Only the distal half of the injured left CA was exposed during the surgery, and this section (approximately 11 mm) was treated with YC-1 (or empty gel) while the proximal half remained untreated. A cohort of animals that was balloon-injured and not exposed to any gel or other treatment served as a separate control group.
Acute studies illustrating enzyme and cGMP induction used freshly obtained tissues that were removed from the sacrificed animal and immediately snap-frozen. In one embodiment, two week studies were performed and morphologic remodeling of the vessel wall was monitored in tissue from animals that were perfusion-fixed transcardially using warmed PBS followed by 10% buffered formalin phosphate. Tissues were fixed, processed by standard procedures, and paraffin-embedded, procedures that are well-known to those of ordinary skill in the art of histology. Five micron sections were cut using a rotary microtome and placed on pre-treated slides. For Verhoff's elastic tissue staining, slides were deparaffinized and stained with Verhoff's solution of alcoholic hematoxylin, ferric chloride, and potassium iodine. Slides differentiated with ferric chloride and counterstained with Van Gieson's solution containing 1% acid fuchsin and picric acid.
Microscopic quantitation of vessel dimensions was performed using Zeiss Image 3.0 (Media Cybernetics) and Adobe Photoshop 4.0™ (Adobe Systems) software systems linked through a CCD color camera (Leaf Microlumina, Leaf Systems, USA) to a Zeiss Axioskop 50 light microscope (Carl Zeiss, Germany). Images were measured for perimeters and areas corresponding to internal and external elastic laminae and lumen. Numerical transformations provided data for neointimal and medial wall areas and vessel diameters.
FIG. 6 depicts representative morphometric analyses for (a) neointimal cross-sectional area, (b) neointimal area/medial wall area ratio, (c) neointimal thickness and (d) medial wall area [(a), (b) and (c) statistically significant with p<0.001; (d) statistically significant with p<0.05]. Data for balloon injured left CA distal sections exposed to YC-1 (“distal+YC-1”) and for balloon injured left CA proximal sections not exposed to YC-1 (“proximal−YC-1”) are shown. Values represent mean±SE. For all parameters n=6 animals in the control group and n=9 animals in the YC-1 treated group.

vascular HO-1 = settings: pharmacologic administration of hemin; cited from earlier work

[C-]#[O+] [CO, carbon monoxide]
activation of the purified enzyme (sGC) [1]: 4- to 6 fold

[N]=O [NO, nitric oxide]
activation of the purified enzyme (sGC) [1]: 400 fold

OCc1ccc(-c2nn(Cc3ccccc3)c3ccccc23)o1 [YC-1, 3-(5′-hydroxymethyl-2′-furyl)-1-benzyl indazole]
YC-1 induced alterations in cGMP ([2]; CA sections from a separate group of uninjured rats (data not shown)): do not show YC-1 induced alterations in cGMP
cGMP content ([2]; injured CA distal sections exposed to YC-1 (1 mg in gel), 24 hours post-injury, mean±SE, n=5, proximal unexposed sections 0.64±0.11, p=0.012): 1.23±0.13
stimulation of CO-induced sGC (specific activity) [1]: approximately 400 fold
histology of elastin-stained cross-section: adventitia and collagen staining ([3]; FIG. 5 panel (B), distal section treated with 1 mg YC-1, 2 weeks post-injury): decreased adventitia and reduced collagen staining
lengths of internal elastic laminae and external elastic laminae ([3]; between and among all treatment groups, 2 weeks post-injury): No differences were detected
neointimal cross-sectional area, attenuation ([3]; distal YC-1 (1 mg) sections vs proximal unexposed sections of same vessel, 2 weeks post-injury, p<0.001, n=9): −74%
neointimal thickness, attenuation ([3]; distal YC-1 (1 mg) sections vs proximal unexposed sections, 2 weeks post-injury, p<0.001, n=9): -76%
medial wall cross-sectional area, diminution ([3]; distal YC-1 (1 mg) sections vs proximal unexposed sections, 2 weeks post-injury, p<0.05, n=9): −12%
neointimal area/medial wall area ratio, attenuation ([3]; distal YC-1 (1 mg) sections vs proximal unexposed sections, 2 weeks post-injury, p=0.001, n=9): −72%

hemin
vascular HO-1 expression (vascular HO-1): upregulated vascular HO-1
